Reference: patent publication US11384074B2, “Pesticidally active pyrrole derivatives” (Syngenta Participations AG, priority 2017, dated 2022)

Assays:
Format in all cases: in vivo
[1] = system: Diabrotica Balteata (Corn Root Worm); test: Diabrotica balteata (corn root worm) mortality on sprayed maize sprouts; conditions: 96 h, application rate of 200 ppm, L2 larvae, assessed 4 days after infestation, read-out: control (mortality)
Protocol: Diabrotica Balteata (Corn Root Worm):
Maize sprouts placed onto an agar layer in 24-well microtiter plates were treated with aqueous test solutions prepared from 10′000 ppm DMSO stock solutions by spraying. After drying, the plates were infested with L2 larvae (6 to 10 per well). The samples were assessed for mortality 4 days after infestation.

[2] = system: Euschistus heros (Neotropical Brown Stink Bug); test: Euschistus heros feeding/contact activity on sprayed soybean leaves; conditions: 120 h, application rate of 200 ppm, N2 nymphs, assessed 5 days after infestation, read-out: control (mortality)
Protocol: Euschistus heros (Neotropical Brown Stink Bug): Feeding/Contact Activity
Soybean leaves on agar in 24-well microtiter plates were sprayed with aqueous test solutions prepared from 10′000 ppm DMSO stock solutions. After drying the leaves were infested with N2 nymphs. The samples were assessed for mortality 5 days after infestation.

[3] = system: Myzus persicae (Green Peach Aphid); test: Myzus persicae feeding/contact activity on sprayed sunflower leaf discs; conditions: foliar, 144 h, application rate of 200 ppm, aphid population of mixed ages, assessed 6 days after infestation, read-out: control (mortality)
Protocol: Myzus persicae (Green Peach Aphid): Feeding/Contact Activity
(§1) Sunflower leaf discs were placed onto agar in a 24-well microtiter plate and sprayed with aqueous test solutions prepared from 10′000 ppm DMSO stock solutions. After drying, the leaf discs were infested with an aphid population of mixed ages. The samples were assessed for mortality 6 days after infestation.

[4] = system: Plutella xylostella (Diamond Back Moth); test: Plutella xylostella feeding/contact activity on treated artificial diet; conditions: 120 h, application rate of 200 ppm, L2 larvae, assessed 5 days after infestation, read-out: control (mortality)
Protocol: Plutella xylostella (Diamond Back Moth): Feeding/Contact Activity
24-well microtiter plates with artificial diet were treated with aqueous test solutions prepared from 10′000 ppm DMSO stock solutions by pipetting. After drying, the plates were infested with L2 larvae (10 to 15 per well). The samples were assessed for mortality 5 days after infestation.

[5] = system: Spodoptera littoralis (Egyptian Cotton Leaf Worm); test: Spodoptera littoralis feeding/contact activity on sprayed cotton leaf discs; conditions: foliar, 72 h, application rate of 200 ppm, L1 larvae, assessed 3 days after infestation, read-out: control (mortality)
Protocol: Spodoptera littoralis (Egyptian Cotton Leaf Worm): Feeding/Contact Activity
Cotton leaf discs were placed onto agar in 24-well microtiter plates and sprayed with aqueous test solutions prepared from 10′000 ppm DMSO stock solutions. After drying the leaf discs were infested with five L1 larvae. The samples were assessed for mortality 3 days after infestation.

[6] = system: Tetranychus urticae (Two-Spotted Spider Mite); test: Tetranychus urticae feeding/contact activity on sprayed bean leaf discs; conditions: foliar, 192 h, application rate of 200 ppm, mite population of mixed ages, assessed 8 days after infestation, read-out: control (mortality on mixed population, mobile stages)
Protocol: Tetranychus urticae (Two-Spotted Spider Mite): Feeding/Contact Activity
Bean leaf discs on agar in 24-well microtiter plates were sprayed with aqueous test solutions prepared from 10′000 ppm DMSO stock solutions. After drying the leaf discs were infested with a mite population of mixed ages. The samples were assessed for mortality on mixed population (mobile stages) 8 days after infestation.

[7] = system: Thrips tabaci (Onion thrips); test: Thrips tabaci feeding/contact activity on sprayed sunflower leaf discs; conditions: foliar, 144 h, application rate of 200 ppm, thrips population of mixed ages, assessed 6 days after infestation, read-out: control (mortality)
Protocol: Thrips tabaci (Onion thrips): Feeding/Contact Activity
as §1, with “on” for “onto”, “in” for “in a”, “plates” for “plate”, “drying” for “drying,”, “a thrips” for “an aphid”

Measured: mortality at 200 ppm

Cn1cc(C(F)(F)C(F)(F)F)c(C(F)(F)F)c1-n1cc(-c2cc(C(=O)NC3CC3)c(C#N)s2)cn1 [Compound 1, 2-cyano-N-cyclopropyl-5-[1-[1-methyl-4-(1,1,2,2,2-pentafluoroethyl)-3-(trifluoromethyl)pyrrol-2-yl]pyrazol-4-yl]thiophene-3-carboxamide]
≥ 80%: all assays above

Cn1cc(C(F)(F)F)c(C(F)(F)C(F)(F)F)c1-n1cc(-c2cc(C(=O)NC3CC3)c(C#N)s2)cn1 [Compound 2, 2-cyano-N-cyclopropyl-5-[1-[1-methyl-3-(1,1,2,2,2-pentafluoroethyl)-4-(trifluoromethyl)pyrrol-2-yl]pyrazol-4-yl]thiophene-3-carboxamide]
not listed: [7]
≥ 80%: all other assays above

Cn1cc(C(F)(F)C(F)(F)F)c(C(F)(F)F)c1-c1cc(-c2cc(C(=O)NC3CC3)c(C#N)s2)on1 [Compound 3, 2-cyano-N-cyclopropyl-5-[3-[1-methyl-4-(1,1,2,2,2-pentafluoroethyl)-3-(trifluoromethyl)pyrrol-2-yl]isoxazol-5-yl]thiophene-3-carboxamide]
not listed: [3]
≥ 80%: all other assays above

Cn1cc(C(F)(F)F)c(C(F)(F)C(F)(F)F)c1-c1cc(-c2cc(C(=O)NC3CC3)c(C#N)s2)on1 [Compound 4, 2-cyano-N-cyclopropyl-5-[3-[1-methyl-3-(1,1,2,2,2-pentafluoroethyl)-4-(trifluoromethyl)pyrrol-2-yl]isoxazol-5-yl]thiophene-3-carboxamide]
not listed: [2] | [3]
≥ 80%: all other assays above

Cn1c(-n2cc(-c3ccc(Cl)c(C(=O)NC4(C#N)CC4)c3)cn2)cc(C(F)(C(F)(F)F)C(F)(F)F)c1Cl [Compound 5, 2-chloro-5-[1-[5-chloro-1-methyl-4-[1,2,2,2-tetrafluoro-1-(trifluoromethyl)ethyl]pyrrol-2-yl]pyrazol-4-yl]-N-(1-cyanocyclopropyl)benzamide]
≥ 80%: [1] | [4] | [5] | [6]

Cn1c(Cl)c(C(F)(C(F)(F)F)C(F)(F)F)c(Br)c1-n1cc(-c2ccc(Cl)c(C(=O)NC3(C#N)CC3)c2)cn1 [Compound 6, 5-[1-[3-bromo-5-chloro-1-methyl-4-[1,2,2,2-tetrafluoro-1-(trifluoromethyl)ethyl]pyrrol-2-yl]pyrazol-4-yl]-2-chloro-N-(1-cyanocyclopropyl)benzamide]
≥ 80%: [1] | [4] | [5] | [6]

Cn1c(Br)cc(C(F)(C(F)(F)F)C(F)(F)F)c1-c1cc(-c2ccc(Cl)c(C(=O)NC3(C#N)CC3)c2)on1 [Compound 7, 5-[3-[5-bromo-1-methyl-3-[1,2,2,2-tetrafluoro-1-(trifluoromethyl)ethyl]pyrrol-2-yl]isoxazol-5-yl]-2-chloro-N-(1-cyanocyclopropyl)benzamide]
≥ 80%: [1] | [3] | [4] | [5]
